Experimental data: paper PMC12697822, “The CtrCBL1/CtrCIPK6 Complex of Citrus Phosphorylates CtrBBX32 to Regulate CtrSTP1‐Mediated Sugar Accumulation and Cold Tolerance” (Advanced Science, 2025)

Tested on: T1, CtrSTP1
T1 construct: full CDS in pDR196, expressed in hexose/sucrose transport-deficient yeast strain CSY4000; plasma membrane hexose transporter
Assay: […]-glucose uptake in CSY4000 yeast, Eadie-Hofstee
Assay type: cell-based, Citrus trifoliata
Details: pH 5.0; 30 °C; 25 mM sodium phosphate; whole yeast cells; labelled compound; proton-coupled

Km: 101 ± 23.9 µM
Compound: OC[C@H]1OC(O)[C@H](O)[C@@H](O)[C@@H]1O (stereo partly shown) [glucose]
